Values quoted from earlier work in patent US20240197806A1, “EBELIN LACTONE OR BACOGENIN A1 ENRICHED COMPOSITION AND METHOD OF PREPARATION THEREOF” (priority 2022, published 2024).

How the values were obtained:
[1] = Ramasamy et al., PLoS One 2015
[2] = Ramasamy et al., PLoS One 2015; remark: listed apart in the source
5-HT2A receptors = 5-HT2A receptors (Homo sapiens, UniProt P28223); settings: read-out: Ki, binding to the 5-HT2A receptors
5-HT2A receptors, sequence (P28223 whole entry): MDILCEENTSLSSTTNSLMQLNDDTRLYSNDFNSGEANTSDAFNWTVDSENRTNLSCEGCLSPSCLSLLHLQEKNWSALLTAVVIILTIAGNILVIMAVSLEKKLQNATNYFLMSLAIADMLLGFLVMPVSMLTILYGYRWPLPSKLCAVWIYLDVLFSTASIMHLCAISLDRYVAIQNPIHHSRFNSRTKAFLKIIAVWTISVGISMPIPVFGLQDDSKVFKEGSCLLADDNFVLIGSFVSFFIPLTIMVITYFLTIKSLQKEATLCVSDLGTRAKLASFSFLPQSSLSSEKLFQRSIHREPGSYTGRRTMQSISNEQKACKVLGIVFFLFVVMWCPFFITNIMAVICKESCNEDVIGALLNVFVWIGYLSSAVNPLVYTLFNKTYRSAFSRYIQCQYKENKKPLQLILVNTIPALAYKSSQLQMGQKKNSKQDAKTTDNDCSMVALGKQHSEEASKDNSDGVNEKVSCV

Compound | intestinal absorption [1] | ability to cross the blood brain barrier / blood brain barrier penetration [2] | Ki (5-HT2A receptors)
CC(C)=CC1C[C@](C)(O)C2C3CCC4[C@@]5(C)CC[C@H](O)C(C)(C)C5CC[C@@]4(C)[C@]34CO[C@]2(C4)O1 (stereo partly drawn) [jujubogenin] | good | able to cross | 
CC(C)=C[C@H]1C[C@](C)(O)[C@@H]2[C@H]3CC[C@@H]4[C@@]5(C)CC[C@H](O[C@@H]6OC[C@H](O)[C@H](O[C@@H]7O[C@H](CO)[C@@H](O)[C@H](O)[C@H]7O)[C@H]6O[C@@H]6O[C@@H](CO)[C@H](O)[C@H]6O)C(C)(C)[C@@H]5CC[C@@]4(C)[C@@]34CO[C@@]2(C4)O1 [bacopaside X] | poor | not able to cross | 
CC(C)=CC1COC23CC4(CO2)C(CCC2C5(C)CCC(O)C(C)(C)C5CCC24C)C3C1(C)O (stereo not drawn) [pseudojujubogenin] | good | able to cross | 
CC1=CC(C)(C)O[C@@]1(C)C1C(=O)C[C@]2(CO)C1CCC1[C@@]3(C)CC[C@H](O)C(C)(C)C3CC[C@]12C (stereo partly drawn) [bacogenin A1] | same absorption parameters as jujubogenin and pseudojujubogenin |  | 
bacopaside II | poor | not able to cross | 
CC(C)=C[C@H]1C[C@](C)(O)[C@H]2[C@H]3CC[C@@H]4[C@@]5(C)CC[C@H](O[C@@H]6O[C@H](CO)[C@@H](O)[C@H](O[C@@H]7O[C@H](CO)[C@@H](O)[C@H](O)[C@H]7O)[C@H]6O[C@@H]6O[C@@H](CO)[C@H](O)[C@H]6O)C(C)(C)[C@@H]5CC[C@@]4(C)[C@@]34CO[C@@]2(C4)O1 [bacoside A3] | poor | not able to cross | 
CC(C)=C/C=C/C(C)=C/C1CCC2[C@@]3(C)CC[C@H](O)C(C)(C)C3CC[C@@]2(C)[C@@]12COC(=O)C2 (stereo partly drawn) [ebelin lactone] |  | very high | 4.21 µM
CC(C)=C[C@@H]1CO[C@]23C[C@]4(CO2)[C@H](CC[C@@H]2[C@@]5(C)CC[C@H](O[C@@H]6OC[C@H](O)[C@H](O[C@@H]7O[C@H](CO)[C@@H](O)[C@H](O)[C@H]7O)[C@H]6O[C@@H]6O[C@@H](CO)[C@H](O)[C@H]6O)C(C)(C)[C@@H]5CC[C@]24C)[C@H]3[C@@]1(C)O [bacopasaponin C] | poor | not able to cross | 
